In brackets after ≈: the same amount, converted by molar mass.
Details: buffer; pH 7.4; 200.0 µM

SMILES | solubility kinetic [µg/mL]
C=CCSc1nc2c(c(=O)[nH]1)C(c1ccccc1)C(C#N)=C(N)O2 (centres undefined) | 48.7 (≈ 144 µM)
NC(=O)c1ccccc1OCc1cccc2ccccc12 | 2.9 (≈ 10.5 µM)
O=C(O)COc1ccc(S(=O)(=O)N2CCCC2)cc1 | > 42.8
NC(=O)C1CCN(C(=O)c2cc(-c3ccc(Cl)s3)nc3ccccc23)CC1 | 9.4 (≈ 23.5 µM)
Cc1ccc(Cl)cc1NC(=O)COC(=O)c1ccccc1O | < 0.7
Cc1ccc(N2C(=O)C3CCCN3C2=S)cc1Cl (centres undefined) | > 42.1
CCOC(=O)Cn1nc(C)c(NC(=O)COc2cccc(Cl)c2)c1C | > 54.9
COc1ccccc1CNS(=O)(=O)c1ccc(Cl)s1 | > 47.7
CCOC(=O)c1cc(C#N)c(C)nc1N(CC)CC | 16.4 (≈ 62.8 µM)
COc1ccccc1OCCNC(=O)CCNC(=O)c1ccccc1Cl | > 56.5
COc1ccc(CCNC(=O)c2cc3ccccc3oc2=O)cc1 | < 0.7
COC(=O)c1cc(OC)c(OC)cc1NC(=O)c1csc(C)c1 | < 0.7
O=C(Nc1cccc(S(=O)(=O)N2CCCCC2)c1)c1cc(=O)[nH]c2ccccc12 | 9.2 (≈ 22.4 µM)
N#CCCC1CCCC=C1N(Cc1ccccc1)C(=O)C(Cl)Cl (centres undefined) | > 52.7
Cc1cc(C)cc(NC(=O)CN2CCN(c3ccccc3)CC2)c1 | 1.8 (≈ 5.57 µM)
Cc1ccccc1OC(C)C(=O)Nc1cccnc1 (centres undefined) | 36.6 (≈ 143 µM)
Cc1n[nH]c(=S)n1-c1ccc(Cl)cc1 | > 33.9
Cc1ccc(C(=O)O)cc1NS(=O)(=O)c1ccc2ccccc2c1 | > 51.2
Cc1onc(-c2ccccc2)c1C(=O)OCCOc1cccc(Cl)c1 | < 0.8
O=C(NCc1cc2ccccc2[nH]1)c1ccccc1F | > 40.2

SMILES | solubility kinetic [µg/mL]
Cc1ccc(NC(=S)N(C)C)cc1C | 29.4 (≈ 141 µM)
Cc1ccc(NC(=O)COC(=O)C2CCC2)cc1S(=O)(=O)N1CCOCC1 | > 59.5
CC1CCCC(NC(=O)COC(=O)COc2ccc(Br)cc2)C1C (centres undefined) | 11.6 (≈ 29.1 µM)
CC1CCCN(S(=O)(=O)c2cccc([N+](=O)[O-])c2)C1 (centres undefined) | 13.3 (≈ 46.8 µM)
CCc1nc(NCCO)c(C#N)c2c1CCCC2 | 35.5 (≈ 145 µM)
O=C(c1cc2cc(Cl)ccc2[nH]1)N1CCc2ccccc2C1 | 0.9 (≈ 2.9 µM)
CCCNc1nc(Cl)nc(Nc2ccc(Cl)cc2)n1 | 1.1 (≈ 3.69 µM)
COc1cccc(-c2nc(CCl)cs2)c1OC.Cl | 32.4
O=C(NCc1ccccc1)C1CC(=O)N(C2CCCCCC2)C1 (centres undefined) | > 47.2
O=C(CCSCc1ccccc1F)NCc1cccs1 | > 46.4
Cl.NC(=NCCc1ccccc1)c1cccc([N+](=O)[O-])c1 | > 45.9
CCNC(=O)COC(=O)CCNC(=O)c1ccc(Cl)cc1 | > 46.9
Cc1noc2ncnc(N3CCCC3)c12 | > 30.6
Cc1cc(C)c2c(CC(=O)NC3CCS(=O)(=O)C3)coc2c1 (centres undefined) | 48.2 (≈ 150 µM)
Cc1ccc(C(=O)N2CCN(c3ccc(C(F)(F)F)cn3)CC2)o1 | 19.8 (≈ 58.4 µM)
O=C(NC1CCN(c2ncccn2)CC1)c1c(F)cccc1F | > 47.7
C[N+](C)=C1SCC(C)(/C=N/O)S1.[Br-] (centres undefined) | > 42.8
COc1ccc(CC(=O)OCC(=O)NC2CC2)cc1 | > 39.5
Cc1ccc(S(=O)(=O)CCC(=O)Nc2ccccc2C)cc1 | 21.9 (≈ 69 µM)
O=C1CS/C(=N/N=C/c2ccncc2)N1 | > 33

SMILES | solubility kinetic [µg/mL]
Cc1ccc2c(c1)c1c3n2CCN(CCC(=O)O)C3CCC1 (centres undefined) | > 44.8
OC(CNCc1ccc(Cl)cc1)C(F)(F)F (centres undefined) | > 38
Cc1cc(OCCCN2CCCC2)ccc1Cl | 26.8 (≈ 106 µM)
O=Cc1ccc(OCCCOc2cccc3cccnc23)cc1 | 37.7 (≈ 123 µM)
COc1ccc(S(=O)(=O)N2CCCCC2)cc1NC(=O)CCNC(=O)c1ccc(Cl)cc1 | 4.3 (≈ 8.96 µM)
O=C(NCC1CCCO1)c1cccc(S(=O)(=O)Nc2cccc(C(F)(F)F)c2)c1 (centres undefined) | 2.1 (≈ 4.9 µM)
O=c1[nH]cnc2cc(-c3ccc(Br)cc3)sc12 | 0.6 (≈ 1.95 µM)
COc1ccc(NC(=O)COC(=O)CCC2CCCC2)c(OC)c1 | 17.4 (≈ 51.9 µM)
COc1ccc(C(=O)N2CCC(C(=O)NC3CC3)CC2)cc1 | > 45.4
Cc1nc(-c2ccccc2Cl)sc1C(=O)/C=C/N(C)C | 10.8 (≈ 35.2 µM)
O=C(NCc1cccs1)C1CC1 | 26.5 (≈ 146 µM)
Oc1cccc(/C=N/NC(=S)Nc2cccnc2)c1O | > 43.2
Cn1c(=O)c2c(O)c([N+](=O)[O-])c(=O)n(C)c2n(C)c1=O | > 42.3
Oc1ccc2ccccc2c1C=NCc1ccccc1 | 10.8 (≈ 41.3 µM)
O=C(OCCC1Oc2cccnc2NC1=O)c1ccc(F)cc1 (centres undefined) | 4.8 (≈ 15.2 µM)
CC(C)(O)CNC(=O)Nc1ccc(Cl)c(Cl)c1 | 24.6 (≈ 88.8 µM)
CC(=O)Nc1ccc(NC(=O)COc2ccc(Cl)cc2Cl)cc1 | 1 (≈ 2.83 µM)
Cc1cc(C)c2nc(C)cc(Nc3ccc(C(=O)N(C)C)cc3)c2c1 | 5.6 (≈ 16.8 µM)
Fc1cccc(NCCc2c[nH]c3ccccc23)n1 | 35.6 (≈ 139 µM)

Reference: PubChem BioAssay AID1996
